Converted amounts (≈) assume the structure as drawn.
Assays:
P. inhibens = assay: Biofilm inhibition assay (crystal violet); type: cell-based, Phaeobacter inhibens; conditions: 31.25 µg/mL
Method: (§1) In a 96-well plate, biofilm grown cultures of M. hydrocarbonoclasticus and C. marina were incubated with napyradiomycins (1–12) at a concentration of 31.25 µg/mL. After discarding the media, biofilm inhibition was determined from OD600 measurements of crystal violet stained cells resuspended from the plate bottom with acetic acid.
(§2) Five marine bacterial species were used as models to assess antimicrofouling activity. The biofilm-forming marine bacteria Marinobacter hydrocarbonoclasticus DSM 8798 (ATCC 49840), Cobetia marina DSM 4741, Phaeobacter inhibens DSM 17,395, and Pseusooceanicola batsensis DSM 15,984 were obtained from DSMZ (Leibniz Institute DSMZ—German collection of Microorganisms and Cell Cultures) and Micrococcus luteus. Cultures were routinely grown in liquid marine broth (Carl Roth GmbH, Karlsruhe, Germany) with agitation (180 rpm) or on agar-supplemented marine broth, at 28 °C (M. hydrocarbonoclasticus and C. marina) or 30 °C (P. inhibens and P. batsensis). M. luteus was maintained in Brain Heart Infusion broth (BHI, Becton Dickinson, GmbH, Heidelberg, Germany) with agitation (180 rpm) or on agar-supplemented BHI, at 37 °C.
(§3) The antibiofilm activity of napyradiomycins (1–12) against the five marine bacterial species was assessed in 96-well polystyrene flat bottom microplates (Nunclon Delta Surface, Thermo Scientific, Roskilde, Denmark) as previously reported. For initial screening, bacterial overnight cultures were diluted to an optical density (OD600nm) value of 0.2 and incubated statically at 28 °C (M. hydrocarbonoclasticus, C. marina), 30 °C (P. inhibens, P. batsensis) or 37 °C (M. luteus) in the 96-well microplate in the presence or absence of 31.25 µg/mL of napyradiomycins, solubilized in DMSO. After 24 h (M. hydrocarbonoclasticus, C. marina) or 48 h (P. batsensis, P. inhibens, M. luteus) incubation, the OD600nm was determined. The planktonic cells and media were discarded, and the wells were washed twice with deionized water. The biofilm was fixed for 1 h at 60 °C and stained with crystal violet 0.06% for 10 min. The dye was discarded, and the wells were again washed twice with deionized water. The stained biofilm was solubilized with 30% acetic acid and the OD600nm was determined. […] The percentage of biofilm inhibition was calculated as the amount of biofilm relative to that of the bacterial species without added compounds (with the same amount of DMSO added). CuSO4 (5 μM), a potent antifouling agent used in antifouling paints, was used as reference.
All assays were performed in triplicate, and results are representative of the average and standard error of the mean (SEM). […]

P. batsensis = assay: Biofilm inhibition assay (crystal violet); type: cell-based, Pseudooceanicola batsensis; conditions: Pseudooceanicola batsensis; 31.25 µg/mL; read-out: % Biofilm Inhibition ± SEM P. batsensis
Method: as §1, §2, §3
(§4) All assays were performed in triplicate, and results are representative of the average and standard error of the mean (SEM). Statistical analysis was performed in GraphPad Prism 8.0.2, using one-way ANOVA followed by a Dunnett’s multiple comparisons test against the control (species grown with the same amount of DMSO added).

[1] = Mussel plantigrade larvae settlement, 15 h acute exposure assay; type: in vivo; conditions: Mytilus galloprovincialis (mussel, plantigrade larvae), in vivo, no mortality at highest tested concentration 12 µg/mL
Method: (§5) Mussel (M. galloprovincialis) adhesive larvae (plantigrades) were used to assess in vivo the antifouling activity of napyradiomycins (1–12) towards macrofouling. Juvenile mussel aggregates were collected at the intertidal rocky shore during low spring tides, at Memória beach, Matosinhos, Portugal (41°13′59″ N; 8°43′28″ W). At the laboratory, immediately before the bioassays, mussel plantigrade larvae were screened and isolated from the juvenile aggregates using a binocular microscope (Olympus SZX2-ILLT, Hamburg, Germany) and washed with filtered seawater to remove organic debris. Only competent plantigrade larvae (those showing foot exploratory behavior) were selected and used in the exposure bioassays following previously validated procedures. Plantigrades were exposed in 24-well polystyrene plates for 15 h in the darkness at 18 °C. DMSO was used as solvent for crude extracts, fractions and pure compounds stock and working solutions. Working solutions were prepared by successive dilutions of stock solutions in DMSO and then diluted in filtered seawater to obtain the test solutions. DMSO concentration in test solutions was always 0.1%. Four well replicates were used per condition with five larvae per well. Two negative controls, one with ultra-pure water and the other with DMSO 0.1% were included in all bioassays, as well as a positive control with 5 μM CuSO4 (a potent antifouling agent). Anti-settlement bioactivity was determined by the presence/absence of fixed byssal threads produced by each individual larvae for all the conditions tested. […] Chi-square Pearsons goodness-of-fit test was applied to data in order to determine EC50. Significance was considered at p < 0.01 for all analyses, and 95% lower and upper confidence limits [95% LCL; UCL] were presented. Therapeutic ratio (LC50/EC50) was used to evaluate the effectiveness vs. toxicity of compounds [19, 21].

[2] = system: M. galloprovincialis plantigrade larvae; assay: as above; type: in vivo; conditions: 95% LCL, UCL in brackets; for EC50: Mytilus galloprovincialis, 15 h, read-out: EC50 [Conf. limits] larval settlement
Method: as §5

M. hydrocarbonoclasticus [3] = assay: Biofilm inhibition assay (crystal violet); type: cell-based, Marinobacter hydrocarbonoclasticus; conditions: Marinobacter nauticus; for inhibition at 31.25 µg/mL: read-out: % Biofilm Inhibition ± SEM M. hydrocarbonoclasticus
Method: as §1, §2, §3, §4

C. marina [4] = assay: Biofilm inhibition assay (crystal violet); type: cell-based, Cobetia marina; conditions: 31.25 µg/mL
Method: as §1, §2, §3, §4

M. luteus [5] = assay: Bacterial growth inhibition assay (OD600nm); type: cell-based, Micrococcus luteus
Excerpt: as §2
(§6) The antibacterial activity of the napyradiomycins (1–12) was assessed in 96-well polystyrene flat bottom microplates (Nunclon Delta Surface, Thermo Scientific, Roskilde, Denmark) following previously reported procedures. […] After 24 h (M. hydrocarbonoclasticus, C. marina) or 48 h (P. batsensis, P. inhibens, M. luteus) incubation, the OD600nm was determined (Molecular Devices, Spectra Max 190). […] The percentage of growth inhibition was calculated as the amount of growth relative to that of the bacterial species without added compounds (with the same amount of DMSO added). CuSO4 (5 μM), a potent antifouling agent used in antifouling paints, was used as reference.
as §4, with “8.0.2 (San Diego, CA, USA),” for “8.0.2,”

M. luteus [6] = assay: Biofilm inhibition assay (crystal violet); type: cell-based, Micrococcus luteus
Method: as §1, §2, §3, §4

M. hydrocarbonoclasticus [7] = assay: Bacterial growth inhibition assay (OD600nm); type: cell-based, Marinobacter hydrocarbonoclasticus; conditions: 31.25 µg/mL
Method: As a first screening approach, liquid cultures of M. hydrocarbonoclasticus, and C. marina in a 96-well format were analyzed for bacterial growth inhibition by percent decrease in OD600 after incubation with napyradiomycins (1–12) at 31.25 µg/mL.
as §2
The antibacterial activity of the napyradiomycins (1–12) was assessed in 96-well polystyrene flat bottom microplates (Nunclon Delta Surface, Thermo Scientific, Roskilde, Denmark) following previously reported procedures. For initial screening, bacterial overnight cultures were diluted to an optical density (OD600nm) of 0.2 and incubated statically at 28 °C (M. hydrocarbonoclasticus, C. marina), 30 °C (P. inhibens, P. batsensis) or 37 °C (M. luteus) in a 96-well microplate in the presence or absence of 31.25 µg/mL of the napyradiomycins, solubilized in DMSO. After 24 h (M. hydrocarbonoclasticus, C. marina) or 48 h (P. batsensis, P. inhibens, M. luteus) incubation, the OD600nm was determined (Molecular Devices, Spectra Max 190). […] The percentage of growth inhibition was calculated as the amount of growth relative to that of the bacterial species without added compounds (with the same amount of DMSO added). CuSO4 (5 μM), a potent antifouling agent used in antifouling paints, was used as reference.
as §4, with “8.0.2 (San Diego, CA, USA),” for “8.0.2,”

C. marina [8] = assay: Bacterial growth inhibition assay (OD600nm); type: cell-based, Cobetia marina; conditions: 31.25 µg/mL
Excerpt: as §2, §6
as §4, with “8.0.2 (San Diego, CA, USA),” for “8.0.2,”

C=C(C)C(O)CC/C(C)=C/C[C@@]12OC(C)(C)[C@H](Cl)C[C@]1(Cl)C(=O)c1c(O)cc(O)cc1C2=O (stereo partly drawn) [Napyradiomycin 4, napyradiomycin A2]
% Biofilm Inhibition ± SEM P. inhibens (P. inhibens): N.I. | inhibition at 31.25 µg/mL (P. batsensis): 13.4 ± 0.8% | LC50 at 15 h [1]: > 12 µg/mL | EC50 [2]: 6.34 µg/mL (≈ 12.7 µM) | inhibition at 0.98 µg/mL (M. hydrocarbonoclasticus [3]; 0.98 µg/mL, read-out: % inhibition of biofilm formation M. hydro.): 56.1 ± 5.6% | inhibition at 1.95 µg/mL (M. hydrocarbonoclasticus [3]; 1.95 µg/mL, read-out: % inhibition of biofilm formation M. hydro.): 78.1 ± 3% | inhibition at 3.91 µg/mL (M. hydrocarbonoclasticus [3]; 3.91 µg/mL, read-out: % inhibition of biofilm formation M. hydro.): 84.5 ± 2% | inhibition at 7.81 µg/mL (M. hydrocarbonoclasticus [3]; 7.81 µg/mL, read-out: % inhibition of biofilm formation M. hydro.): 67 ± 5.5% | inhibition at 15.6 µg/mL (M. hydrocarbonoclasticus [3]; 15.6 µg/mL, read-out: % inhibition of biofilm formation M. hydro.): 82.3 ± 1.5% | inhibition at 31.25 µg/mL (M. hydrocarbonoclasticus [3]): 56.9 ± 5.7% | % Biofilm Inhibition ± SEM C. marina (C. marina [4]): N.I. | inhibition at 0.98 µg/mL (M. luteus [5]; Micrococcus luteus, 0.98 µg/mL): 38.7 ± 1.9% | inhibition at 1.95 µg/mL (M. luteus [5]; Micrococcus luteus, 1.95 µg/mL): 51.7 ± 4.5% | inhibition at 3.91 µg/mL (M. luteus [5]; Micrococcus luteus, 3.91 µg/mL): 61.2 ± 3.7% | inhibition at 7.81 µg/mL (M. luteus [5]; Micrococcus luteus, 7.81 µg/mL): 53.3 ± 5.7% | inhibition at 15.6 µg/mL (M. luteus [5]; Micrococcus luteus, 15.60 µg/mL): 60.1 ± 8.5% | inhibition at 31.25 µg/mL (M. luteus [5]; Micrococcus luteus, 31.25 µg/mL): 72.5 ± 7.7% | % growth inhibition M. luteus (M. luteus [5]; all tested concentrations): approximately 50% | % inhibition of biofilm formation M. luteus (M. luteus [6]; 0.98 µg/mL): 93.8 ± 4.1% | inhibition at 0.98 µg/mL (M. luteus [6]; Micrococcus luteus, 0.98 µg/mL, read-out: % inhibition of biofilm formation M. luteus): > 90% | inhibition at 1.95 µg/mL (M. luteus [6]; Micrococcus luteus, 1.95 µg/mL, read-out: % inhibition of biofilm formation M. luteus): 91.7 ± 0.9% | inhibition at 3.91 µg/mL (M. luteus [6]; Micrococcus luteus, 3.91 µg/mL, read-out: % inhibition of biofilm formation M. luteus): 100 ± 0.4% | inhibition at 7.81 µg/mL (M. luteus [6]; Micrococcus luteus, 7.81 µg/mL, read-out: % inhibition of biofilm formation M. luteus): 86.7 ± 3% | inhibition at 15.6 µg/mL (M. luteus [6]; Micrococcus luteus, 15.6 µg/mL, read-out: % inhibition of biofilm formation M. luteus): 88.8 ± 4.2% | inhibition at 31.25 µg/mL (M. luteus [6]; Micrococcus luteus, 31.25 µg/mL, read-out: % Biofilm Inhibition ± SEM M. luteus): 97 ± 1.2%

Cc1c(O)cc2c(c1O)C(=O)C1(Cl)CC(Cl)C(C)(C)OC1(CC1C(C)(O)CCC(Cl)C1(C)C)C2=O (stereo not drawn) [Napyradiomycin 10, napyradiomycin A80915C]
LC50 at 15 h [1]: > 12 µg/mL | EC50 [Conf. limits] larval settlement [2]: 0.102 [0.072; 0.140] µg/mL | EC50 [2]: 0.1 µg/mL (≈ 0.183 µM) | inhibition at 31.25 µg/mL (M. hydrocarbonoclasticus [3]): 25.1 ± 10.2% | % growth inhibition M. hydrocarbonoclasticus (M. hydrocarbonoclasticus [7]): did not inhibit growth | % Biofilm Inhibition ± SEM C. marina (C. marina [4]): N.I. | % growth inhibition C. marina (C. marina [8]): did not inhibit growth

C=C1CCC(Cl)C(C)(C)C1C[C@@]12OC(C)(C)[C@H](Cl)C=C1C(=O)c1c(cc(O)c(C)c1O)C2=O (stereo partly drawn) [Napyradiomycin 12, 4-dehydro-4a-dechloro-napyradiomycin A80915A]
LC50 at 15 h [1]: > 12 µg/mL | EC50 [Conf. limits] larval settlement [2]: 0.947 [0.586; 1.473] µg/mL | EC50 [2]: 0.95 µg/mL (≈ 1.93 µM) | inhibition at 31.25 µg/mL (M. hydrocarbonoclasticus [3]): 33.7 ± 5.1% | % growth inhibition M. hydrocarbonoclasticus (M. hydrocarbonoclasticus [7]): did not inhibit growth | % Biofilm Inhibition ± SEM C. marina (C. marina [4]): N.I. | % growth inhibition C. marina (C. marina [8]): did not inhibit growth

— PMC7024211, “Antifouling Napyradiomycins from Marine-Derived Actinomycetes Streptomyces aculeolatus” (Marine Drugs, 2020)
